# Data reported in ChEMBL document CHEMBL4406868, “Structure-based design and SAR development of novel selective polo-like kinase 1 inhibitors having the tetrahydropteridin scaffold” (Eur J Med Chem, 2019).
# Key:
# [1] = system: Huh-7; assay: cells; conditions: Homo sapiens, Huh-7, 72 h
# [2] = system: NCI-H1975; assay: cells; conditions: Homo sapiens, NCI-H1975, 72 h
# [3] = system: K562; assay: cells; conditions: Homo sapiens, K562, 72 h
# [4] = system: MCF7; assay: cells; conditions: Homo sapiens, MCF7, 72 h
# [5] = system: A549; assay: cells; conditions: Homo sapiens, A549, 72 h
# [6] = system: HeLa; assay: cells; conditions: Homo sapiens, 72 h
# [7] = Solubility of compound in PBS buffer at pH 7.4 incubated for 12 hrs by UV-visible spectrophotometry; format: physicochemical
# [8] = target: Serine/threonine-protein kinase PLK2 (Homo sapiens, UniProt Q9NYY3); assay: Inhibition of recombinant full length human GST-tagged PLK2 expressed in baculovirus expression system using ser/thr 16 as substrate incubated for 1 hr by Z'-LYTE assay
# Sequence of Serine/threonine-protein kinase PLK2 (Q9NYY3 whole entry): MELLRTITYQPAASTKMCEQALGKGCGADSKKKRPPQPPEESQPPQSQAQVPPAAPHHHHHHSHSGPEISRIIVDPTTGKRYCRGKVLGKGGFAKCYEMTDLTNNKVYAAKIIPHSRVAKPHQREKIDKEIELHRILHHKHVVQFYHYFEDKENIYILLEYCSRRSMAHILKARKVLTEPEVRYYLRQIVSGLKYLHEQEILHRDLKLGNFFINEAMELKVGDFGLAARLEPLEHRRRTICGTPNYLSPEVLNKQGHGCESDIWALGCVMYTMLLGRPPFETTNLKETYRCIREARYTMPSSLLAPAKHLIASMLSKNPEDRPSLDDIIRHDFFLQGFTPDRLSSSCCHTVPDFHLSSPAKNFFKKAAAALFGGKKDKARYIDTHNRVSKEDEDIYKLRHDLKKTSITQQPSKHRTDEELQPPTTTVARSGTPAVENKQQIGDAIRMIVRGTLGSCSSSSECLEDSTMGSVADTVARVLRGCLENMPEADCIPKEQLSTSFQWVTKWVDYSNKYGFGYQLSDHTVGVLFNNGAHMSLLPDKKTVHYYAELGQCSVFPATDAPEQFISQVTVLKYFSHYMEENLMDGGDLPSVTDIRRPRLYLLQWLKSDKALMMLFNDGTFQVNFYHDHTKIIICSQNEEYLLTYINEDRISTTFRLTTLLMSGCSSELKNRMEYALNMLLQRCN
Compound,GI50 [1] [µM],GI50 [2] [µM],GI50 [3] [µM],GI50 [4] [µM],GI50 [5] [µM],GI50 [6] [µM],solubility at 12 h [7] [µg/mL],IC50 [8] [µM]
CCNC(=O)c1ccc(Nc2ncc3c(n2)N(C2CCCC2)[C@H](CC)C(=O)N3C)c(OCCO)c1,0.0816,0.519,0.0989,0.331,0.197,0.0823,,
CC[C@@H]1C(=O)N(C)c2cnc(Nc3ccc(C(=O)NC4CC4)cc3OCCO)nc2N1C1CCCC1,0.197,0.676,0.143,0.269,0.322,0.129,,
CC[C@@H]1C(=O)N(C)c2cnc(Nc3cc(F)c(C(=O)NC(C)C)cc3OCCO)nc2N1C1CCCC1,0.0924,0.128,0.0452,0.0306,0.0676,0.0284,< 150,
CC[C@@H]1C(=O)N(C)c2cnc(Nc3cc(F)c(C(=O)NCCN(C)C)cc3OCCO)nc2N1C1CCCC1,0.807,5.13,0.731,1.55,1.72,0.435,,
CC[C@@H]1C(=O)N(C)c2cnc(Nc3ccc(C(=O)NCCN4CCN(C)CC4)cc3OCCO)nc2N1C1CCCC1,0.876,3.81,0.187,0.871,0.54,0.892,,
CC[C@@H]1C(=O)N(C)c2cnc(Nc3ccc(C(=O)NC4CCN(C)CC4)cc3OCCO)nc2N1C(C)C,> 10,> 10,6.5,> 10,> 10,> 10,,
CC[C@@H]1C(=O)N(C)c2cnc(Nc3ccc(C(=O)NC4CCN(C)CC4)cc3OC)nc2N1C1CCCC1 [BI-2536],0.0284,0.13,0.0605,0.067,0.0571,0.034,730,
CC[C@@H]1C(=O)N(C)c2cnc(Nc3ccc(C(=O)NCCN(C)C)cc3OCCO)nc2N1C1CCCC1,0.239,3.2,0.0582,0.312,0.283,0.133,,0.265
CC[C@@H]1C(=O)N(CCO)c2cnc(Nc3ccc(C(=O)NC4CCCC4)cc3OC)nc2N1C1CCCC1,4.47,3.83,4.44,3.72,5.02,4.82,,
CC[C@@H]1C(=O)N(C)c2cnc(Nc3cc(F)c(C(=O)NC4CCN(C)CC4)cc3OCCO)nc2N1C(C)C,0.885,2.12,0.54,0.833,0.852,0.275,,
CC[C@@H]1C(=O)N(C)c2cnc(Nc3ccc(C(N)=O)cc3OCCO)nc2N1C1CCCC1,0.129,1.2,0.132,0.252,0.447,0.118,,0.29
CC[C@@H]1C(=O)N(C)c2cnc(Nc3ccc(C(=O)NC4CCCC4)cc3OCCO)nc2N1C1CCCC1,0.11,0.158,0.0913,0.0989,0.0712,0.0507,,0.152
CC[C@@H]1C(=O)N(C)c2cnc(Nc3cc(F)c(C(=O)NCCN4CCN(C)CC4)cc3OCCO)nc2N1C1CCCC1,0.831,2.47,1.07,0.908,1.19,0.225,,0.167
CC[C@@H]1C(=O)N(C)c2cnc(Nc3cc(F)c(C(=O)NCCN4CCOCC4)cc3OCCO)nc2N1C1CCCC1,0.232,1.15,0.1,0.405,0.172,0.036,,
CC[C@@H]1C(=O)N(C)c2cnc(Nc3ccc(C(=O)NC)cc3OCCO)nc2N1C1CCCC1,0.0524,0.361,0.0469,0.135,0.0844,0.0254,,
CC[C@@H]1C(=O)Nc2cnc(Nc3ccc(C(=O)NC4CCCC4)cc3OC)nc2N1C1CCCC1,0.429,1.1,0.81,0.744,0.729,0.728,,
CCNC(=O)c1cc(OCCO)c(Nc2ncc3c(n2)N(C2CCCC2)[C@H](CC)C(=O)N3C)cc1F,0.141,0.253,0.0863,0.13,0.0983,0.0394,,0.107
CC[C@@H]1C(=O)N(C)c2cnc(Nc3ccc(C(=O)NC4CCCC4)cc3OCCO)nc2N1C(C)C,1.45,2.37,1.25,1.82,2.59,1.12,,
CC[C@@H]1C(=O)N(C)c2cnc(Nc3cc(F)c(C(=O)NC4CCOCC4)cc3OCCO)nc2N1C(C)C,1.11,1.92,0.915,0.931,1.17,0.351,,0.869
CC[C@@H]1C(=O)N(C)c2cnc(Nc3ccc(C(C)=O)cc3OCCO)nc2N1C1CCCC1,0.056,0.22,0.0381,0.107,0.0876,0.042,,0.132
CCC1C(=O)N(C)c2cnc(Nc3cc(F)c(C(=O)NC4CCCC4)cc3OCCO)nc2N1C1CCCC1 (stereo not drawn),0.349,0.567,0.265,0.158,0.352,0.123,,
CC[C@@H]1C(=O)N(C)c2cnc(Nc3cc(F)c(C(=O)NC)cc3OCCO)nc2N1C1CCCC1,0.113,0.51,0.12,0.223,0.171,0.0471,,
CC[C@@H]1C(=O)N(C)c2cnc(Nc3ccc(C(=O)NC(C)C)cc3OCCO)nc2N1C1CCCC1,0.0659,0.677,0.0474,0.162,0.0793,0.0247,,
CC[C@@H]1C(=O)N(C)c2cnc(Nc3ccc(C(=O)NC4CCCC4)cc3CCO)nc2N1C1CCCC1,0.0255,0.197,0.0574,0.0649,0.0768,0.0451,,0.036
CC[C@@H]1C(=O)N(C)c2cnc(Nc3ccc(C(=O)NC4CCN(C(C)C)CC4)cc3OCCO)nc2N1C1CCCC1,0.216,0.171,0.0658,0.14,0.138,0.122,,
CC[C@@H]1C(=O)N(C)c2cnc(Nc3ccc(C(=O)NC4CCOCC4)cc3OCCO)nc2N1C1CCCC1,0.0199,0.166,0.0638,0.0643,0.0794,0.0419,,
CC[C@@H]1C(=O)N(COC)c2cnc(Nc3ccc(C(=O)NC4CCCC4)cc3OC)nc2N1C1CCCC1,6.76,> 10,> 10,> 10,8.13,> 10,,
CC[C@@H]1C(=O)N(C)c2cnc(Nc3ccc(C(=O)NC4CCOCC4)cc3OCCO)nc2N1C(C)C,0.722,3.55,0.773,1.27,3.44,1.75,,
